Paper PMC11955804, “Histidine-rich enantiomeric peptide coacervates enhance antigen sequestration and presentation to T cells” (Chemical Science, 2025)

Experiments:
[1] = tested on: CD55 expression in A549 cells; assay: CRISPR/Cas9 RNP delivery, CD55 knockdown by flow cytometry; assay type: cell-based; settings: 3 days, enantiomeric coacervates
Procedure: complexed with lipofectamine 2000 (3.2 µL) served as controls. GFP expression was assessed qualitatively after 96 h using a Lionheart FX automated microscope (BioTek Instruments, Inc.).
We employed TrueCut Cas9 protein for the knockout of CD55 gene using CRISPR technology, aided with chiral (GHGXY)4 peptide coacervates. The transfection of the Cas9 RNPs (protein + gRNA) was done according to manufacturer’s protocol (Invitrogen). Briefly, A549 cells were cultured in complete DMEM media (supplemented with 10% FBS and 5% Pen Strep) in T-75 flask till full confluency. Cells were then plated at a concentration of 2×10^4 cells/mL in 24 well […]
plates in DMEM media for 24 h. […]
confluent. For positive control, we mixed the TrueCutTM Cas9 protein/sgRNA in Opti-MEM media (17.8 μL) at a concentration of 12.50 μg (75 pmol; Stock 0.5 mg/mL) and 2.4 μg (75 pmol; Stock 1 nmol) for protein and sgRNA respectively, containing 50 μL LipofectamineTM Cas 9 PlusTM reagent (Total Volume: 100 μL) in a RNAse -free microcentrifuge tube. […]
(DAF) Antibody (anti-human; miltenyibiotec Cat#130-126-382). […] Data were analyzed with FlowJo version 10. […] was quantified as the percentage CD55+ cells, considering untreated cells as the negative control and Lipofectamine treated ones as the positive control. […]

DCs = assay: DQ-OVA delivery to lysosomes (fluorescence microscopy); assay type: cell-based, mouse; settings: DQ-OVA loaded coacervates, 2.5 μg/mL DQ-OVA, fluorescence microscopy
Procedure: page 13: Flow cytometry The transfected A549 cells were washed with FACS wash buffer (FWB; 1× PBS with 10% […] Cells were washed again with FWB and then resuspended in 100 µl of PBS with eBioscience™ Fixable Viability Dye eFluor™ 506 antibody. The staining was quenched with FWB following a 20 min incubation. The cells were centrifuged, washed 2× times with FWB, and resuspended in 100 µl FWB with CD55 (DAF) Antibody (anti-human; miltenyibiotec Cat#130-126-382). After 20 min, staining was quenched, cells washed twice and resuspended in 200 µl FWB for acquisition. Single-stained cells stained with eFluor™ 506, CD55 (DAF) Antibody, were used as compensation controls. Samples were acquired using an Agilent NovoCyte 3000 flow cytometer. Data were analyzed with FlowJo version 10. […] was quantified as the percentage CD55+ cells, considering untreated cells as the negative control and Lipofectamine treated ones as the positive control. Antigen delivery to lysosomes and inhibitor effects DC 2.4 cells were cultured in RPMI-1640 (Catalog number: 11875093) medium supplemented with 10% FBS, 100 U/mL penicillin, 100 μg/mL streptomycin, and 1 mM sodium pyruvate. Cells were plated in 8-well chamber slides (5000 cells in 200 μL of media) and incubated for 24 h prior to addition of DQ-OVA loaded coacervates for 2 h, 6 h, or 24 h (final DQ-OVA concentration was 2.5 μg/mL). Cells treated with PBS or soluble OVA served as controls. Cells were then washed and fixed using 4% Paraformaldehyde (PFA) for 15 min at RT and permeabilized with 0.1% Triton X-100 for 5 min prior to nuclear staining with Hoechst stain (Catalog number: 62249, Thermo Fischer Scientific; 10 μg/mL). Cells were imaged (60×) on Lionheart FX automated microscope (BioTek Instruments, Inc.) with controlled exposure S13 page 14: parameters across two channels: eGFP and DAPI.

[2] = tested on: BMDCs overlaid with DOBW cells; assay: In vitro antigen presentation assay, MHC class II (BMDCs + DOBW hybridoma, IL-2 ELISA); settings: DOBW overlay; for IL-2 levels at 4 °C compared to 37 °C controls: OVA-loaded coacervates, DCs at 4 °C, ELISA
Procedure: To test internalization mechanisms, we utilized in vitro antigen presentation assays (Fig. 4A). Here, bone marrow-derived dendritic cells (BMDCs) are treated with coacervates loaded with the model antigen ovalbumin (OVA). […] Secretion of IL-2 in response to peptide-MHC recognition is an indirect measure of coacervate uptake and can be quantified using ELISA (enzyme-linked immunosorbent assay) (Fig. 4A). […] We next used pharmacological inhibitors of endocytic mechanisms to explore mechanisms of cell entry (Fig. 4E). BMDCs were treated with inhibitors of clathrin-mediated endocytosis (chlorpromazine, CPZ),[58] dynamin-dependent endocytosis (dynasore, Dyn),[59] macropinocytosis (wortmannin, Wort),[60] cholesterol (methyl β-CD),[61] and IPA3 the regulatory domain of PAK1 (IPA-3)[62] for one h prior to antigen presentation assays.
Cellular uptake and antigen presentation assays
Uptake of coacervates by BMDCs was measured using in vitro antigen presentation assays.
BMDCs were plated in 96-well round-bottom plates (1×10^5 cells/well) and maintained at 4°C or
treated with 10 mM deoxy glucose and 10 mM sodium azide in PBS (ATP depletion) for 1 h prior
to addition of OVA-loaded coacervates. Final OVA concentration was 1 g/mL for time-
dependent measurements and 10 g/mL for comparison between enantiomers. Cells maintained at
37°C and complete RPMI media served as controls. Soluble OVA and PBS treated cells were used as controls for antigen delivery. Following treatment (2 h, 4 h, 24 h, 48 h, or 72 h), BMDCs were
washed to remove extracellular coacervates and DOBW hybridoma cells (1:5, DC: DOBW) were
overlaid for 16 h. The cells were then centrifuged at 300 × g for 5 min, and the supernatant was
collected for IL-2 quantitation by ELISA according to the manufacturer protocol (Biotechne,
#DY402). The amount of IL-2 produced under each condition was measured.
Inhibition of coacervate uptake was measured by adding the inhibitors 1 h
prior to coacervate treatment for 24 h followed by hybridoma overlay and IL-2 measurements.

Row | Substance | delivery of Cas9 RNP complex / decrease in CD55 expression on the cell surface [1] | lysosomal processing of DQ-OVA delivered by coacervates (DCs) | IL-2 levels at 4 °C compared to 37 °C controls [2] | IL-2 production compared to (GHGLY)4 at the same antigen dose ([2]; coacervates loaded with 1 μM OVA, pre-treatment 2-72 h)
1 | (GHGLY)4 [GL 20] | not highly effective | Green fluorescent puncta were detected | significantly lower IL-2 levels | 
2 | (GHGVY)4 [GV 20] | successfully delivered the RNP complex | Green fluorescent puncta were detected | significantly lower IL-2 levels | significantly higher
